Laboratory results from PubChem BioAssay (NCI).
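Briefly, cells in 96-well plates were exposed to five compound concentrations for 48 h, and endpoints were estimated by linear interpolation. Here, GI50 denotes the concentration required for 50% inhibition of growth. TGI: concentration producing complete growth inhibition.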 Where a SMILES comes first, the peptide text is derived from it. [ ]: non-standard residue; d: D form. The star is where a group is joined. ξ: configuration not given here. NMeN = CN[C@@H](CC(N)=O)C(=O)O; NMeV = CN[C@H](C(=O)O)C(C)C; ξNMeV = CNC(C(=O)O)C(C)C; Boc = CC(C)(C)OC(=O)*; ξNMeA = CNC(C)C(=O)O

Assays:
Assay in all cases: NCI tumour cell line growth inhibition, 48 h
[1] = test system: DLD-1 colon
[2] = test system: HOP-18 NSCLC
[3] = test system: LXFL 529 NSCLC
[4] = test system: M19-MEL melanoma
[5] = test system: MDA-N
[6] = test system: PC-3 prostate
[7] = test system: SNB-78 CNS
[8] = test system: XF 498 CNS

| Compound | TGI [1] [µM] | TGI [2] [µM] | TGI [3] [µM] | TGI [4] [µM] | TGI [5] [µM] | TGI [6] [µM] | TGI [7] [µM] | TGI [8] [µM] | GI50 [1] [µM] | GI50 [2] [µM] | GI50 [3] [µM] | GI50 [4] [µM] | GI50 [7] [µM] | GI50 [8] [µM] |
| --- | --- | --- | --- | --- | --- | --- | --- | --- | --- | --- | --- | --- | --- | --- |
| COC(=O)C(C)N(C)C(=O)[C@H](CC(N)=O)N(C)C(=O)[C@@H]1CCCN1C(=O)[C@H](C(C)C)N(C)C(=O)C(C(C)C)N(C)C(=O)[C@@H](NC(=O)OC(C)(C)C)C(C)C (stereo partly drawn) (Boc-V[ξNMeV][NMeV]P[NMeN][ξNMeA]-OMe) | > 100 | > 100 | > 100 | > 100 | > 50 | 50 | > 100 | > 100 | – | – | – | – | – | – |
| CCC[CH2][Sn]([CH2]CCC)([O]C(=O)C(N)CSC)[O]C(=O)C(N)CSC (stereo not drawn) | 18.3 | 21.8 | 3.49 | 19.5 | – | – | 9.64 | 19 | 6.44 | 10.2 | 0.969 | 6.65 | 3.17 | 5.54 |
| NC(=S)N/N=C(\C(=O)Nc1cccc([N+](=O)[O-])c1)c1nc2ccc([N+](=O)[O-])cc2[nH]c1=O | > 100 | > 100 | > 100 | > 100 | – | – | – | > 100 | – | – | – | – | – | – |
| COC(=O)C12CC3CC(C1)CC(C(=O)OC)(C3)C2 | > 100 | > 100 | > 100 | > 100 | – | – | > 100 | > 100 | – | – | – | – | – | – |
| O=C1c2ccccc2C2(O)NC(=S)N(c3ccccc3)C12O (stereo not drawn) | > 100 | > 100 | > 100 | > 100 | – | – | > 100 | > 100 | – | – | – | – | – | – |
| COc1cc(C(=O)C/C(CCC(=O)Nc2ccc(Cl)cc2C)=N/NC(=O)C(N)=O)ccc1O | > 100 | > 100 | > 100 | > 100 | – | – | > 100 | > 100 | – | – | – | – | – | – |
| C[C@]12CC[C@H](OCCC#N)CC1=CC[C@@H]1C2CC[C@]2(C)/C(=N/OCCC#N)CCC12 (stereo partly drawn) | > 100 | > 100 | > 100 | > 100 | – | – | > 90 | 48.9 | – | – | – | – | – | – |
| CCCCCCCCCCC(O)C1CCC(C(O)CCC(O)C2CCC(CCCCCCC[C@H](O)CC3=C[C@@H](C)OC3=O)O2)O1 (stereo partly drawn) | > 100 | > 100 | > 100 | > 100 | – | – | > 100 | > 100 | – | – | – | – | – | – |
| CCc1nc(N)nc(C(=O)NCCNC(=O)c2nc(N)nc(CC)c2C)c1C | > 100 | > 100 | > 100 | > 100 | – | – | > 100 | > 100 | – | – | – | – | – | – |
| COC(=O)C12C3C4C5C3(C#N)C1C5(C(=O)OC)C42C(=O)N(C(C)C)C(C)C (stereo not drawn) | > 70.6 | > 100 | > 100 | > 100 | – | – | > 100 | > 100 | – | – | – | – | – | – |
| O=c1[nH]c2c3ccccc3ccc2c2cc3c(cc12)OCO3 | > 100 | > 100 | > 100 | > 100 | – | – | > 100 | > 100 | – | – | – | – | – | – |
